Measured values as given in paper PMC12883167 (Bioorganic & medicinal chemistry letters, 2019).

How the values were obtained:
[1] = target: T1, MALT1 (Homo sapiens, UniProt Q9UDY8); test: MALT1 biochemical assay; conditions: at 5 μM
T1 sequence (Q9UDY8 1-824): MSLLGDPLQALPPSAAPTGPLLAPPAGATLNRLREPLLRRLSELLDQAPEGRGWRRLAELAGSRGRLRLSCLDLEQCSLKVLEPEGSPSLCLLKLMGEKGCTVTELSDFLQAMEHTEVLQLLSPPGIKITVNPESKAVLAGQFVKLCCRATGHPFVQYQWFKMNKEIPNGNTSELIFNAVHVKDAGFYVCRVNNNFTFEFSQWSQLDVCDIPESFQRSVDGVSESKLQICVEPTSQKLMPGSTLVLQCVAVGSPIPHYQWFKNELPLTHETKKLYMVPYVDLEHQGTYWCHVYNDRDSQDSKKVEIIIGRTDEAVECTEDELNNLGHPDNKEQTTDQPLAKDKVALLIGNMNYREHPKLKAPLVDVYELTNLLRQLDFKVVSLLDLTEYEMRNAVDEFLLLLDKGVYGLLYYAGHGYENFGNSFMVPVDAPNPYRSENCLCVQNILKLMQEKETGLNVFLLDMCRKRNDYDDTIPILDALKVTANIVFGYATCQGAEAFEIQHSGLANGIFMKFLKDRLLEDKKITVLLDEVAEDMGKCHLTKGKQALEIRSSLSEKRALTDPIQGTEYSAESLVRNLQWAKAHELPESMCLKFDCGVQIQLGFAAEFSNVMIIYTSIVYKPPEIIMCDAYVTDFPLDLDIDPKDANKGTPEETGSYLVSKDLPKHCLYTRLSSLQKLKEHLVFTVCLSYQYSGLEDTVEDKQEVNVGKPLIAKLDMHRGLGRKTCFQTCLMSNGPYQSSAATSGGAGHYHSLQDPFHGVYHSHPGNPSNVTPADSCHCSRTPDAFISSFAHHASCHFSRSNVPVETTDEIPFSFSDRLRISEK

[2] = system: RelB cleavage (MALT1 protease activity) in OCI-Ly3 cells; test: Inhibition of RelB cleavage in OCI-Ly3 cells by Western blot; format: cell-based; conditions: at 20 μM
[3] = target: T2, MALT1 protease (Homo sapiens, UniProt Q9UDY8); format: cell-based; conditions: Cell (Glo), GloSensor reporter, PMA/IO activated Raji cells
T2 sequence (Q9UDY8 1-824): T1 sequence (Q9UDY8 1-824)

[4] = system: OCI-Ly3 cells; test: OCI-Ly3 cell proliferation assay

SMILES: CCC(=O)[C@H](CCCNC(=N)N)NC(=O)[C@@H]1CCCN1C(=O)[C@@H](NC(=O)[C@H](CC(C)C)NC(=O)OCc1ccccc1)C(C)C [Compound 2]
- activity in the biochemical assay [1]: no activity
- inhibition of RelB cleavage [2]: no effects
- IC50 [3]: > 20 µM
- activity in the cell (proliferation) assay, in words [4]: no activity
